Source: patent US20230074545A1, “TREATMENT OF CANCER WITH CDK12/13 INHIBITORS” (Kinnate Biopharma Inc., priority 2019, published 2023)

Assays:
[1] = tested on: BRCA1; test: DDR gene expression (qPCR) in HCC70 cells; assay type: cell-based
Protocol: HCC70 (ATCC CRL-2315) cells in 96-well plate format were treated with either DMSO or compound 1 for 2 hours. After compound treatment was done for 2 hours, the plates were washed by PBS once, then fresh culture medium was added to the cells and cells were incubated for 4, 10, 22, 46, 70 hours respectively. At each time point (4, 10, 22, 46, 70 hours after 2 h washout) RNA extraction was done according to manufacturer's instructions as follows. RNA Extraction and qPCR was done using the Ambion Cell to CT kit (Cat #AM1728). Briefly, cells were removed from the incubator, washed once in PBS, lysed by adding 50 μL Lysis Solution from the kit, mixed 5 times and 5 μL Stop Solution was added to the well. All actions were done using RNAase and DNAase free labware.
The Reverse Transcription Reaction mix was then prepared. All reagents were kept in an ice-water bath during the whole operation. […]
The setting of QuantStudio®5 Real-Time qPCR System was shown in the following figure and the fluorescence gain was set at 1×.
Data Analysis was done according to the QuantStudio5 Software. Threshold of signal was calculated by QuantStudio 5 software using the default setting. The relative gene expression was evaluated using the following formulas: […]
Gene expression was detected using qPCR with the Taqman (Applied Biosystems, ThermoFisher Scientific; Carlsbad, Calif.) probe listed in Table 7. […]

[2] = biological target: T1, TRKC (Homo sapiens, UniProt Q16288); test: Radiometric kinase panel; assay type: biochemical
T1 construct: either as full-length or enzymatically active fragments; purchased ProQinase GmbH (Reaction Biology)
Protocol: (§1) The compounds 1-5 (see Table 1) were assayed for kinase activity at ProQinase (ProQinase GmbH, Reaction Biology; Freiburg, Germany) using their commercially available radiometric kinase assay services. Briefly, the compounds were provided as solids and were dissolved to 1×10^−03 M/100% DMSO stock solutions on the day of assay. All protein kinases were provided by ProQinase and were expressed in Sf9 insect cells or in E. coli as recombinant GST-fusion proteins or His-tagged proteins, either as full-length or enzymatically active fragments. All kinases were produced from human cDNAs and purified by either GSH-affinity chromatography or immobilized metal. The purity of the protein kinases was examined by SDS-PAGE/Coomassie staining, the identity was checked by mass spectroscopy. A radiometric protein kinase assay (^33PanQinase® Activity Assay) was used for measuring the kinase activity of the protein kinase. All kinase assays were performed in 96-well FlashPlates™ from PerkinElmer (Boston, Mass., USA) in a 50 microliter reaction volume. The reaction cocktail was pipetted in four steps in the following order: 1) 25 microliter of assay buffer (standard buffer/[gamma-^33P]-ATP); 2) 10 microliter of ATP solution (in H2O); 3) 5 microliter of test compound (in 10% DMSO); 4) 10 microliter of enzyme/substrate mixture.
(§2) Compound 4 was analyzed for selectivity against a panel of other kinases at ProQinase using their commercially available radiometric kinase assay services and the methods described in Example 1.

[3] = biological target: T2, HIPK3 (Homo sapiens, UniProt Q9H422); test: Radiometric kinase panel; assay type: biochemical
T2 construct: either as full-length or enzymatically active fragments; purchased ProQinase GmbH (Reaction Biology)
T2 sequence (Q9H422 whole entry, the tested form may be a part): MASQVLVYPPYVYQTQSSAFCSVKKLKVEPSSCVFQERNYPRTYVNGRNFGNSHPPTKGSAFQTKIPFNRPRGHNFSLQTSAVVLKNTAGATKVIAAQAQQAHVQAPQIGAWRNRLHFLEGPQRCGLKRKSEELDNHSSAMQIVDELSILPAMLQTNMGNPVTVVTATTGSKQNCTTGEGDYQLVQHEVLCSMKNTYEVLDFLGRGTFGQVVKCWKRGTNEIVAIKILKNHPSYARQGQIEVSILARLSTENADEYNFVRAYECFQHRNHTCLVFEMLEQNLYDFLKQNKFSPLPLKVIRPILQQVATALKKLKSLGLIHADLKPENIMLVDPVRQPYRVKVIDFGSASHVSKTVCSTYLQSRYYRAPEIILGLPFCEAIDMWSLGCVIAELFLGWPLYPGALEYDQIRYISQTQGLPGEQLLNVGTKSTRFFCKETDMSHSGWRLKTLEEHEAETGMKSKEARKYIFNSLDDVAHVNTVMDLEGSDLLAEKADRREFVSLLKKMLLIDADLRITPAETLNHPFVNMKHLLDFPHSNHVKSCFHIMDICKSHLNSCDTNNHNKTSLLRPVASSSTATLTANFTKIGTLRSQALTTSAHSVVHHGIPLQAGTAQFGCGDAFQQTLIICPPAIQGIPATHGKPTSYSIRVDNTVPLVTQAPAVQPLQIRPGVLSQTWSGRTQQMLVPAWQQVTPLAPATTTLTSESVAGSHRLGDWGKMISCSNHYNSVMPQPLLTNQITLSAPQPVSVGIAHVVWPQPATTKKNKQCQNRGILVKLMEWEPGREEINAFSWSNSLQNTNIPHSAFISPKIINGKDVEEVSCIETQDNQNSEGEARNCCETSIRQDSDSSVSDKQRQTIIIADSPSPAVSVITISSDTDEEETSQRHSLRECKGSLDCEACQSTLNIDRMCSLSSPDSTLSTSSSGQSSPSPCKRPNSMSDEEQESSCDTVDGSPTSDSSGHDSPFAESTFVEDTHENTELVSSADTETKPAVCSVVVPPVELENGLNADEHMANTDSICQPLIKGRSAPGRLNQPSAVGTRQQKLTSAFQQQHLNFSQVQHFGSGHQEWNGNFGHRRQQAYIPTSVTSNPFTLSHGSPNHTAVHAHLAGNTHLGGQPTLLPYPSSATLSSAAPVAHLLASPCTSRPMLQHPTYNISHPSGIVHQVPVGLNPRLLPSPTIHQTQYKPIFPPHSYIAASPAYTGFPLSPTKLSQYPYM
Protocol: as §1, §2

[4] = biological target: T3, TIE2 (Homo sapiens, UniProt Q02763); test: Radiometric kinase panel; assay type: biochemical
T3 construct: either as full-length or enzymatically active fragments; purchased ProQinase GmbH (Reaction Biology); host or cells: Sf9 insect cells or E. coli
Protocol: as §1, §2

[5] = biological target: T4, PKCzeta (Homo sapiens, UniProt Q05513); test: Radiometric kinase panel; assay type: biochemical
T4 construct: either as full-length or enzymatically active fragments; purchased ProQinase GmbH (Reaction Biology)
T4 sequence (Q05513 whole entry, the tested form may be a part): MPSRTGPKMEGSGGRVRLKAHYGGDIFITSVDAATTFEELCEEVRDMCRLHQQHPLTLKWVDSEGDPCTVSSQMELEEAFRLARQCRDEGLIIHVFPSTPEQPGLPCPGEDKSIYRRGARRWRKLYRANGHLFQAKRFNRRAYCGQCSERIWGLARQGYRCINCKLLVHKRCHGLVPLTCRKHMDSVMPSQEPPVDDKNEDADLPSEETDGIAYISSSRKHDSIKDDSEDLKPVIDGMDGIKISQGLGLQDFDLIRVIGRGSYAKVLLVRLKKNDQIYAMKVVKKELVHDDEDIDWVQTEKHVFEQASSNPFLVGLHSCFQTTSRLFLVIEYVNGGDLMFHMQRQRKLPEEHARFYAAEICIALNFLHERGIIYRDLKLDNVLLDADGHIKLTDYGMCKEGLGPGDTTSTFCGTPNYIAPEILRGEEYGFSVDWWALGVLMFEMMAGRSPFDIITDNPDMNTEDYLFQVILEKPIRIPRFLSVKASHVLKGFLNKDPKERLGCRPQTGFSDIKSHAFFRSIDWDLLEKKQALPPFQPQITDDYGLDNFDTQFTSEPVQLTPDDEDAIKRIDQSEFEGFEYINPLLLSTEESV
Protocol: as §1, §2

[6] = biological target: T5, FYN (Homo sapiens, UniProt P06241); test: Radiometric kinase panel; assay type: biochemical
T5 construct: purchased ProQinase GmbH (Reaction Biology)
T5 sequence (P06241 whole entry): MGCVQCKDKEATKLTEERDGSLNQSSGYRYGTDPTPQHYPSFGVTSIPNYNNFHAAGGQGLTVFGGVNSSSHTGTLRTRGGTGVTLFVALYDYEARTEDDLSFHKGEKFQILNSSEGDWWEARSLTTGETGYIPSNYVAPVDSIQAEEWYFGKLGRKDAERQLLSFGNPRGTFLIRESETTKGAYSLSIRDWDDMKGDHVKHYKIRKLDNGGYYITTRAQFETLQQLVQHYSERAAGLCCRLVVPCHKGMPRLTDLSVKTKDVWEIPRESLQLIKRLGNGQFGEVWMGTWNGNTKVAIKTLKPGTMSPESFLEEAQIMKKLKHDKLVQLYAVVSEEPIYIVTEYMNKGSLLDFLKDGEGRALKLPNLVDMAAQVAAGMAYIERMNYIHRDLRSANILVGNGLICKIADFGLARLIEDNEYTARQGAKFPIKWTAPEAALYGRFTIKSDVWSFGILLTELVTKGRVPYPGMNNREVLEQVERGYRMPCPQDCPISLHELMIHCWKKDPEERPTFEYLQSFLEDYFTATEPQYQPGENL
Protocol: as §1, §2

[7] = biological target: T6, CAMKK1 (Homo sapiens, UniProt Q8N5S9); test: Radiometric kinase panel; assay type: biochemical
T6 construct: either as full-length or enzymatically active fragments; purchased ProQinase GmbH (Reaction Biology)
Protocol: as §1, §2

[8] = biological target: T7, STK33 (Homo sapiens, UniProt Q9BYT3); test: Radiometric kinase panel; assay type: biochemical
T7 construct: either as full-length or enzymatically active fragments; purchased ProQinase GmbH (Reaction Biology)
T7 sequence (Q9BYT3 whole entry, the tested form may be a part): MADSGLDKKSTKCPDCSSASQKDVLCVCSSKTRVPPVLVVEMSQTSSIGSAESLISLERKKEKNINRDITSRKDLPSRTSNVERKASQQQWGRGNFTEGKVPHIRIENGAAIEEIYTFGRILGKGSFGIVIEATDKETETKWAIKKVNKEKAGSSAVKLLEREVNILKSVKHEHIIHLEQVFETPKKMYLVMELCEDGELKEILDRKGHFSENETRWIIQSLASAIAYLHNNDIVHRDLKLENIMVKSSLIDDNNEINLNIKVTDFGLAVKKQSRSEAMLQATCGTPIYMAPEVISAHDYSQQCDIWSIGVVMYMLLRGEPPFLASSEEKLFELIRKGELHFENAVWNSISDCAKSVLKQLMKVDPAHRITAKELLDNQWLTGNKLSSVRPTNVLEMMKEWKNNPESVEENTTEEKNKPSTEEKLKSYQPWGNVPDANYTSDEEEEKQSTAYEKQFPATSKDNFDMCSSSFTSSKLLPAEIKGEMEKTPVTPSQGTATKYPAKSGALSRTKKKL
Protocol: as §1, §2

[9] = biological target: T8, MKK6 SDTD (Homo sapiens, UniProt P52564, S207D/T211D); test: Radiometric kinase panel; assay type: biochemical
T8 construct: either as full-length or enzymatically active fragments; purchased ProQinase GmbH (Reaction Biology); host or cells: Sf9 insect cells or E. coli (not specified per kinase)
T8 sequence (P52564 whole entry S207D/T211D, the tested form may be a part): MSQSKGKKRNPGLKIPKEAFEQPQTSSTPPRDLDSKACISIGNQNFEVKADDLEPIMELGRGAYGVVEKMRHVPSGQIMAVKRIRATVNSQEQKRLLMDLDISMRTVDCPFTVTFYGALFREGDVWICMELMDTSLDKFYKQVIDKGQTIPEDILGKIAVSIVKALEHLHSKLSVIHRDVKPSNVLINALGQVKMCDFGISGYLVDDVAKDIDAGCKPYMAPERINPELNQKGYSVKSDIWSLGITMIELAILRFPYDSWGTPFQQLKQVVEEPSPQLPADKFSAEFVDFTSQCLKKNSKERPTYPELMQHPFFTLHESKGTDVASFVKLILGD
Protocol: as §1, §2

[10] = biological target: T9, PAK2 (Homo sapiens, UniProt Q13177); test: Radiometric kinase panel; assay type: biochemical
T9 construct: either as full-length or enzymatically active fragments; purchased ProQinase GmbH (Reaction Biology)
Protocol: as §1, §2

[11] = biological target: T10, MKNK2 (Homo sapiens, UniProt Q9HBH9); test: Radiometric kinase panel; assay type: biochemical
T10 construct: either as full-length or enzymatically active fragments; purchased ProQinase GmbH (Reaction Biology)
Protocol: as §1, §2

[12] = biological target: T11, EPHA7 (Homo sapiens, UniProt Q15375); test: Radiometric kinase panel; assay type: biochemical
T11 construct: either as full-length or enzymatically active fragments; purchased ProQinase GmbH (Reaction Biology)
Protocol: as §1, §2

[13] = biological target: T12, MERTK (Homo sapiens, UniProt Q12866); test: Radiometric kinase panel; assay type: biochemical
T12 construct: either as full-length or enzymatically active fragments; purchased ProQinase GmbH (Reaction Biology)
Protocol: as §1, §2

[14] = biological target: T13, ERK2 (Homo sapiens, UniProt P28482); test: Radiometric kinase panel; assay type: biochemical
T13 construct: either as full-length or enzymatically active fragments; purchased ProQinase GmbH (Reaction Biology); host or cells: Sf9 insect cells or E. coli (not specified per kinase)
T13 sequence (P28482 whole entry, the tested form may be a part): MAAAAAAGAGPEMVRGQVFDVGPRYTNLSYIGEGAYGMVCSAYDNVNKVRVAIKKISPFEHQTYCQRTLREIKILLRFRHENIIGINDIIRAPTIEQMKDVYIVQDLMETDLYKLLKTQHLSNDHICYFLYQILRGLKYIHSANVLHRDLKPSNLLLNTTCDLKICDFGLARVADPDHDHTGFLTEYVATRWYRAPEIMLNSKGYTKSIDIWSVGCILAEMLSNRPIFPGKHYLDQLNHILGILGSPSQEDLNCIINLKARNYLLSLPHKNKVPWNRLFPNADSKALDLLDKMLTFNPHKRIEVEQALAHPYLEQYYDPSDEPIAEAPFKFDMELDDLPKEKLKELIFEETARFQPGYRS
Protocol: as §1, §2

[15] = biological target: T14, ALK (Homo sapiens, UniProt Q9UM73); test: Radiometric kinase panel; assay type: biochemical
T14 construct: either as full-length or enzymatically active fragments; purchased ProQinase GmbH (Reaction Biology)
Protocol: as §1, §2

[16] = biological target: T15, PLK3 (Homo sapiens, UniProt Q9H4B4); test: Radiometric kinase panel; assay type: biochemical
T15 construct: either as full-length or enzymatically active fragments; purchased ProQinase GmbH (Reaction Biology); host or cells: Sf9 insect cells or E. coli
T15 sequence (Q9H4B4 whole entry, the tested form may be a part): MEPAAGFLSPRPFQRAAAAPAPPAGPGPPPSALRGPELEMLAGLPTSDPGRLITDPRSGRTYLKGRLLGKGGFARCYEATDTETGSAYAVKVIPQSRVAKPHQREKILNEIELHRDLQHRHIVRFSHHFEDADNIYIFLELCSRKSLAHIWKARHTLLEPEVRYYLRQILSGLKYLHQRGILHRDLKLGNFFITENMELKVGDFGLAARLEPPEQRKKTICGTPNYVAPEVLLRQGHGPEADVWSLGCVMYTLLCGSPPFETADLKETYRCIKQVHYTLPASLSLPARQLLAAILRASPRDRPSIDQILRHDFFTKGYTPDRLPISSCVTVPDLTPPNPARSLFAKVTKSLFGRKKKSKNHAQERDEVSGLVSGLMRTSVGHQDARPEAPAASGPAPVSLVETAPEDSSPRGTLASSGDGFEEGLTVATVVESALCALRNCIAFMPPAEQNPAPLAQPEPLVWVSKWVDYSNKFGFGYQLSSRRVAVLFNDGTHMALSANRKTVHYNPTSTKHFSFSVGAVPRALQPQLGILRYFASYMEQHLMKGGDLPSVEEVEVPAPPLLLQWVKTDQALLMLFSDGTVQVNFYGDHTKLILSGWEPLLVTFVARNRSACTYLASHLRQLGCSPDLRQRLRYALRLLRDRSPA
Protocol: as §1, §2

[17] = biological target: T16, SYK (Homo sapiens, UniProt P43405); test: Radiometric kinase panel; assay type: biochemical
T16 construct: either as full-length or enzymatically active fragments; purchased ProQinase GmbH (Reaction Biology)
Protocol: as §1, §2

[18] = biological target: T17, VRK1 (Homo sapiens, UniProt Q99986); test: Radiometric kinase panel; assay type: biochemical
T17 construct: either as full-length or enzymatically active fragments; purchased ProQinase GmbH (Reaction Biology)
Protocol: as §1, §2

[19] = biological target: T18, DYRK1B (Homo sapiens, UniProt Q9Y463); test: Radiometric kinase panel; assay type: biochemical
T18 construct: either as full-length or enzymatically active fragments; purchased ProQinase GmbH (Reaction Biology)
Protocol: as §1, §2

[20] = biological target: T19, ARK5 (Homo sapiens, UniProt O60285); test: Radiometric kinase panel; assay type: biochemical
T19 construct: either as full-length or enzymatically active fragments; purchased ProQinase GmbH (Reaction Biology); host or cells: Sf9 insect cells or E. coli (not specified per kinase)
T19 sequence (O60285 whole entry, the tested form may be a part): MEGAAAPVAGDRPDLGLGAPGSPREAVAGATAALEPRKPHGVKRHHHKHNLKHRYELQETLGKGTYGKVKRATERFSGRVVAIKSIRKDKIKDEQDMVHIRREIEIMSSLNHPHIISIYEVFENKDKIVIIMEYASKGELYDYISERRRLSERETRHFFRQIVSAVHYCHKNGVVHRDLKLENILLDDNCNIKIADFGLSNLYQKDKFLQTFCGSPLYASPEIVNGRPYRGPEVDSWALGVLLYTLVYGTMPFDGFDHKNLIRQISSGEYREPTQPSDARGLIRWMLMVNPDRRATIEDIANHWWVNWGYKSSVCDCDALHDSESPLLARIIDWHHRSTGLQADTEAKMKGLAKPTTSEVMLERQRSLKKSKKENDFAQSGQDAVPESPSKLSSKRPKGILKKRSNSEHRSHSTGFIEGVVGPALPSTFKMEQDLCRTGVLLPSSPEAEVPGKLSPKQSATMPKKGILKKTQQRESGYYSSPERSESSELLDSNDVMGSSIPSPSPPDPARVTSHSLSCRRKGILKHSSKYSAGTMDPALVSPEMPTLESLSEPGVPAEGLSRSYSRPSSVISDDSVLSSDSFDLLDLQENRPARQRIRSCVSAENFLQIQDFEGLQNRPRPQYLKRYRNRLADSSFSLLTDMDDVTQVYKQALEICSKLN
Protocol: as §1, §2

SMILES: C=CC(=O)Nc1ccc(C(=O)N2CC[C@@H](Nc3ncc(Cl)c(OC)n3)C2)cc1 [Compound 1, (R)-N-(4-(3-((5-chloro-4-methoxypyrimidin-2-yl)amino)pyrrolidine-1-carbonyl)phenyl)acrylamide]
- levels of BRCA1 expression ([1]; 2 hours treatment then washout, qPCR): reduction in levels of BRCA1 expression
- time of strongest reduction in gene expression (BRCA1) ([1]; after treatment (post-washout)): 10 h

SMILES: C=CC(=O)Nc1ccc(C(=O)N2CC[C@@H](Nc3ncc(C#N)cn3)C2)cc1 [Compound 4, (R)-N-(4-(3-((5-cyanopyrimidin-2-yl)amino)pyrrolidine-1-carbonyl)phenyl)acrylamide]
- inhibition at 1 µM [2]: -11%
- inhibition at 1 µM [3]: -7%
- inhibition at 1 µM [4]: -18%
- inhibition at 1 µM [5]: -3%
- inhibition at 1 µM [6]: -2%
- inhibition at 1 µM [7]: 3%
- inhibition at 1 µM [8]: 5%
- inhibition at 1 µM [9]: 11%
- inhibition at 1 µM [10]: 16%
- inhibition at 1 µM [11]: 4%
- inhibition at 1 µM [12]: -3%
- inhibition at 1 µM [13]: -8%
- inhibition at 1 µM [14]: 9%
- inhibition at 1 µM [15]: 8%
- inhibition at 1 µM [16]: 13%
- inhibition at 1 µM [17]: 2%
- inhibition at 1 µM [18]: 2%
- inhibition at 1 µM [19]: 3%
- inhibition at 1 µM [20]: 10%
